In patent publication US11028315B2, “Zwitterionic surfactants suitable for enhanced oil recovery” (RHODIA OPERATIONS, priority 2016, dated 2021):
Several values for one entry are separate records, joined by “and”; a condition that tells them apart may be missing. Identical values can stand only once.

What was measured:
Assay type in all cases: physicochemical
[1] = Interfacial tension calculated from solubility ratios at the equilibrium phase behavior
Procedure: (§1) The wt. % of the more hydrophilic zwitterionic leading to a Will phase behavior (optimal wt %. of co-surfactant), was determined in presence of crude oil at 40° C. and reported in Table 1. The solubility of surfactant blends was also analyzed.

[2] = Phase behavior: optimal wt. % of co-surfactant leading to Will phase behavior in presence of crude oil
Procedure: (§2) 2.1 In the following examples, the performances of surfactants formulations containing the betaine of example 1.3.1 in a brine solution at 50 g/L NaCl were compared.
(§3) The total surfactant concentration was set at 8 g/L and the formulation variable was the wt. % of the more hydrophilic zwitterionic surfactant (considered as co-surfactant) in the surfactant blend.
as §1

[3] = Interfacial tension with crude oil by spinning drop methods; conditions: mixture of ADBB12 and the betaine from C23 ketones derived diamine at the optimal wt. %
Procedure: All the linear alkyl betaines, solutions separate in two phases or forms really turbid solutions (0.86 absorbance). Interfacial tension with crude oil of the mixture ADBB12 and the betaine from C23 ketones derived diamine at the optimal wt. % was evaluated by spinning drop methods. The ultra-low interfacial tension was confirmed (=10^−3 mN/m).

[4] = Solubility of surfactant blends (absorbance)
Procedure: as §2, §3, §1
2.2. In terms of interfacial tension, all the blends studied led to ultra-low values (<10^−2 mN/m). On the other hand, only the hydrophilic amido betaine derived from a branched C12 acid (ADBB12) allows obtaining a homogeneous but opalescent water solution (absorbance of 0.46) at the optimal formulation (71 wt. %).

SMILES: CCCCCCC(CCCC)C(=O)NCCC[N+](C)(C)CC(=O)[O-] (stereo not shown) [ADBB12]
- γw (interfacial tension) ([1]; blend with betaine of example 1.3.1 at optimal wt. %, brine 50 g/L NaCl, 8 g/L, crude oil, 40° C.): 3,4 mN/m · 10^3
- γw (interfacial tension) ([1]; blend with sulfobetaine from C23 ketone derived diamine at optimal wt. %): 3.3 mN/m · 10^3
- Optimal % co-surfactant ([2]; blend with betaine of example 1.3.1, brine 50 g/L NaCl, total surfactant 8 g/L, crude oil, 40° C., wt. % of co-surfactant in the blend): 71%
- Optimal % co-surfactant ([2]; blend with sulfobetaine from C23 ketone derived diamine, same conditions as the betaines (50 g/L NaCl, 8 g/L, crude oil, 40° C.)): 64%
- Interfacial tension with crude oil [3]: 10^−3 mN/m
- Absorbance ([4]; blend with betaine of example 1.3.1 at optimal wt. % co-surfactant, brine 50 g/L NaCl, total surfactant 8 g/L): 0.46 and 0.45
- Absorbance ([4]; blend with sulfobetaine from C23 ketone derived diamine at optimal wt. % co-surfactant): 0.84
